Measured values reported in patent US9695155B2, “Herbicidal substituted pyrimidinyloxy benzene compounds” (E. I. DU PONT DE NEMOURS AND COMPANY, priority 2013, dated 2017).
Like-named read-outs stand apart in the source and are kept apart here.

How the values were obtained:
[1] = tested on: blackgrass; test: Test A postemergence; type: in vivo, Alopecurus myosuroides; conditions: for Plant response rating, Blackgrass: 0 to 100 scale, 0 no effect, 100 complete control
In short: (§1)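 Visual injury scored 0–100 (100 = complete control) against untreated controls about 10 days after treatment in a greenhouse. Test chemicals, formulated with surfactant in non-phytotoxic solvent, were sprayed on soil preemergence or on 2-10 cm, one- to two-leaf plants postemergence.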

[2] = tested on: Italian ryegrass; test: Test A preemergence; type: in vivo, Lolium multiflorum; conditions: for Plant response rating, Ryegrass, Italian: 0 to 100 scale where 0 is no effect and 100 is complete control
In short: as §1

[3] = tested on: velvetleaf; test: Test C preemergence; type: in vivo, Abutilon theophrasti; conditions: Abutilon theophrasti, pre-emergence; for pest or weed control at 16 g/ha: 16 g ai/ha, scale 0 to 100 (0 no effect, 100 complete control); for pest or weed control at 62 g/ha: 62 g ai/ha; for pest or weed control at 125 g/ha: 125 g ai/ha
In short: (§2)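 Greenhouse herbicide screen. Pre: seeded loam/sand, sprayed at planting. Post: 1–4 leaf plants (2–18 cm) in peat-based mix. Formulation: solvent mixture + surfactant, non-phytotoxic. Readout: visual % control vs untreated, 13–15 d; dash = not tested.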

[4] = tested on: giant foxtail; test: Test C preemergence; type: in vivo, Setaria faberii; conditions: Setaria faberi, pre-emergence; for pest or weed control at 16 g/ha: 16 g ai/ha, scale 0 to 100 (0 no effect, 100 complete control); for pest or weed control at 62 g/ha: 62 g ai/ha; for pest or weed control at 125 g/ha: 125 g ai/ha
In short: as §2

[5] = tested on: large (Lg) crabgrass; test: Test C preemergence; type: in vivo, Digitaria sanguinalis; conditions: Digitaria sanguinalis, pre-emergence; for pest or weed control at 16 g/ha: 16 g ai/ha, scale 0 to 100 (0 no effect, 100 complete control); for pest or weed control at 62 g/ha: 62 g ai/ha; for pest or weed control at 125 g/ha: 125 g ai/ha
In short: as §2

[6] = tested on: galium; test: Test A postemergence; type: in vivo, Galium aparine; conditions: for Plant response rating, Galium: 0 to 100 scale, 0 no effect, 100 complete control
In short: as §1

[7] = tested on: galium; test: Test C preemergence; type: in vivo, Galium aparine; conditions: Galium, pre-emergence; for pest or weed control at 16 g/ha: 16 g ai/ha, scale 0 to 100 (0 no effect, 100 complete control); for pest or weed control at 62 g/ha: 62 g ai/ha; for pest or weed control at 125 g/ha: 125 g ai/ha
In short: as §2

[8] = tested on: waterhemp; test: Test C preemergence; type: in vivo, Amaranthus rudis; conditions: Amaranthus tuberculatus, pre-emergence; for pest or weed control at 16 g/ha: 16 g ai/ha, scale 0 to 100 (0 no effect, 100 complete control); for pest or weed control at 62 g/ha: 62 g ai/ha; for pest or weed control at 125 g/ha: 125 g ai/ha
In short: as §2

[9] = tested on: corn; test: Test C preemergence; type: in vivo, Zea mays; conditions: Zea mays, pre-emergence; for plant injury at 16 g/ha: 16 g ai/ha, scale 0 to 100 (0 no effect, 100 complete control); for plant injury at 125 g/ha: 125 g ai/ha
In short: as §2

[10] = tested on: wheat, winter; test: Test C preemergence; type: in vivo, Triticum aestivum; conditions: Triticum aestivum, pre-emergence; for plant injury at 16 g/ha: 16 g ai/ha, scale 0 to 100 (0 no effect, 100 complete control); for plant injury at 62 g/ha: 62 g ai/ha; for plant injury at 125 g/ha: 125 g ai/ha
In short: as §2

[11] = tested on: ragweed; test: Test A preemergence; type: in vivo, Ambrosia elatior; conditions: for Plant response rating, Ragweed: 0 to 100 scale where 0 is no effect and 100 is complete control
In short: as §1

[12] = tested on: kochia; test: Test A preemergence; type: in vivo, Kochia scoparia; conditions: for Plant response rating, Kochia: 0 to 100 scale where 0 is no effect and 100 is complete control
In short: as §1

[13] = tested on: lambsquarters; test: Test C preemergence; type: in vivo, Chenopodium album; conditions: Chenopodium album, pre-emergence; for pest or weed control at 16 g/ha: 16 g ai/ha, scale 0 to 100 (0 no effect, 100 complete control); for pest or weed control at 62 g/ha: 62 g ai/ha; for pest or weed control at 125 g/ha: 125 g ai/ha
In short: as §2

[14] = tested on: pigweed; test: Test C preemergence; type: in vivo, Amaranthus retroflexus; conditions: Amaranthus retroflexus, pre-emergence; for pest or weed control at 16 g/ha: 16 g ai/ha, scale 0 to 100 (0 no effect, 100 complete control); for pest or weed control at 62 g/ha: 62 g ai/ha; for pest or weed control at 125 g/ha: 125 g ai/ha
In short: as §2

[15] = 125 g ai/ha, 0 to 100 scale where 0 is no effect and 100 is complete control
[16] = 31 g ai/ha, visual, approximately 10 days
[17] = preemergence, read-out: Velvetleaf plant response rating
[18] = preemergence, scale 0 (no effect) to 100 (complete control), read-out: Velvetleaf plant response rating
[19] = preemergence, read-out: Foxtail, Giant plant response rating
[20] = preemergence, scale 0 (no effect) to 100 (complete control), read-out: Foxtail, Giant plant response rating
[21] = preemergence, read-out: Crabgrass, Large plant response rating
[22] = preemergence, scale 0 (no effect) to 100 (complete control), read-out: Crabgrass, Large plant response rating
[23] = preemergence, read-out: Galium plant response rating
[24] = preemergence, scale 0 (no effect) to 100 (complete control), read-out: Galium plant response rating
[25] = preemergence, read-out: Waterhemp plant response rating
[26] = preemergence, scale 0 (no effect) to 100 (complete control), read-out: Waterhemp plant response rating
[27] = preemergence, read-out: Corn plant response rating
[28] = preemergence, scale 0 (no effect) to 100 (complete control), read-out: Corn plant response rating
[29] = preemergence, read-out: Wheat plant response rating
[30] = preemergence, scale 0 (no effect) to 100 (complete control), read-out: Wheat plant response rating
[31] = preemergence, read-out: Lambsquarters plant response rating
[32] = preemergence, scale 0 (no effect) to 100 (complete control), read-out: Lambsquarters plant response rating
[33] = preemergence, read-out: Pigweed plant response rating
[34] = preemergence, scale 0 (no effect) to 100 (complete control), read-out: Pigweed plant response rating

Fc1cccc(Oc2ncc(Cl)cn2)c1-n1cc(C(F)F)nn1 [Compound 141, 5-chloro-2-[2-[4-(difluoromethyl)-1H-1,2,3-triazol-1-yl]-3-fluorophenoxy]pyrimidine]
Plant response rating, Blackgrass ([1]; 31 g ai/ha): 90
Blackgrass plant response rating [1, 15]: 100
Plant response rating, Ryegrass, Italian [2, 16]: 30
Plant response rating, Ryegrass, Italian ([2]; 125 g ai/ha): 80
pest or weed control at 16 g/ha [3, 17]: 100%
pest or weed control at 62 g/ha [3, 18]: 100%
pest or weed control at 125 g/ha [3, 18]: 100%
pest or weed control at 16 g/ha [4, 19]: 90%
pest or weed control at 62 g/ha [4, 20]: 100%
pest or weed control at 125 g/ha [4, 20]: 100%
pest or weed control at 31 g/ha ([4]; Preemergence, 31 g ai/ha, scale 0 to 100, 0 no effect, 100 complete control, read-out: Plant response rating, Foxtail, Giant): 100%
pest or weed control at 16 g/ha [5, 21]: 100%
pest or weed control at 62 g/ha [5, 22]: 100%
pest or weed control at 125 g/ha [5, 22]: 100%
pest or weed control at 31 g/ha ([5]; Preemergence, 31 g ai/ha, scale 0 to 100, 0 no effect, 100 complete control, read-out: Plant response rating, Crabgrass, Large): 100%
Plant response rating, Galium ([6]; 31 g ai/ha): 100
Galium plant response rating [6, 15]: 100
pest or weed control at 16 g/ha [7, 23]: 98%
pest or weed control at 62 g/ha [7, 24]: 100%
pest or weed control at 125 g/ha [7, 24]: 100%
pest or weed control at 31 g/ha ([7]; Preemergence, 31 g ai/ha, scale 0 to 100, 0 no effect, 100 complete control, read-out: Plant response rating, Galium): 98%
pest or weed control at 16 g/ha [8, 25]: 100%
pest or weed control at 62 g/ha [8, 26]: 100%
pest or weed control at 125 g/ha [8, 26]: 100%
plant injury at 16 g/ha [9, 27]: 5%
plant injury at 62 g/ha ([9]; 62 g ai/ha, preemergence, scale 0 (no effect) to 100 (complete control), read-out: Corn plant response rating): 80%
plant injury at 125 g/ha [9, 28]: 90%
Corn plant response rating (crop injury, 0 = no effect, 100 = complete kill) at 31 g/ha ([9]; Preemergence, 31 g ai/ha, scale 0 to 100, 0 no effect, 100 complete control): 20%
plant injury at 16 g/ha [10, 29]: 0%
plant injury at 62 g/ha [10, 30]: 40%
plant injury at 125 g/ha [10, 30]: 60%
Plant response rating, Ragweed [11, 16]: 90
Plant response rating, Ragweed ([11]; 125 g ai/ha): 100
Plant response rating, Kochia [12, 16]: 100
Plant response rating, Kochia ([12]; 125 g ai/ha): 100
pest or weed control at 16 g/ha [13, 31]: 85%
pest or weed control at 62 g/ha [13, 32]: 100%
pest or weed control at 125 g/ha [13, 32]: 100%
pest or weed control at 16 g/ha [14, 33]: 100%
pest or weed control at 62 g/ha [14, 34]: 100%
pest or weed control at 125 g/ha [14, 34]: 100%

N#Cc1cccc(Oc2ncc(Cl)cn2)c1-n1cc(C(F)F)cn1 [Compound 253, 3-(5-chloropyrimidin-2-yl)oxy-2-[4-(difluoromethyl)-1H-pyrazol-1-yl]benzonitrile]
Plant response rating, Blackgrass ([1]; 31 g ai/ha): 20
Plant response rating, Blackgrass ([1]; 125 g ai/ha): 80
Plant response rating, Ryegrass, Italian [2, 16]: 20
Ryegrass, Italian plant response rating (0 to 100 scale) ([2]; 125 g ai/ha): 20
pest or weed control at 16 g/ha [3, 17]: 55%
pest or weed control at 125 g/ha [3, 18]: 100%
pest or weed control at 62 g/ha ([3]; Preemergence, scale 0 to 100, 0 no effect, 100 complete control, read-out: Plant response rating, Velvetleaf): 100%
pest or weed control at 16 g/ha [4, 19]: 35%
pest or weed control at 125 g/ha [4, 20]: 100%
pest or weed control at 62 g/ha ([4]; Preemergence, scale 0 to 100, 0 no effect, 100 complete control, read-out: Plant response rating, Foxtail, Giant): 98%
pest or weed control at 16 g/ha [5, 21]: 85%
pest or weed control at 125 g/ha [5, 22]: 100%
pest or weed control at 62 g/ha ([5]; Preemergence, scale 0 to 100, 0 no effect, 100 complete control, read-out: Plant response rating, Crabgrass, Large): 100%
Plant response rating, Galium ([6]; 31 g ai/ha): 60
Plant response rating, Galium ([6]; 125 g ai/ha): 100
pest or weed control at 16 g/ha [7, 23]: 70%
pest or weed control at 125 g/ha [7, 24]: 95%
pest or weed control at 62 g/ha ([7]; Preemergence, scale 0 to 100, 0 no effect, 100 complete control, read-out: Plant response rating, Galium): 100%
pest or weed control at 16 g/ha [8, 25]: 100%
pest or weed control at 125 g/ha [8, 26]: 100%
pest or weed control at 62 g/ha ([8]; Preemergence, scale 0 to 100, 0 no effect, 100 complete control, read-out: Plant response rating, Waterhemp): 100%
plant injury at 16 g/ha [9, 27]: 0%
plant injury at 125 g/ha [9, 28]: 90%
Corn plant response rating (crop injury, 0 = no effect, 100 = complete kill) at 62 g/ha ([9]; Preemergence, 62 g ai/ha, scale 0 to 100, 0 no effect, 100 complete control): 35%
plant injury at 16 g/ha [10, 29]: 0%
plant injury at 125 g/ha [10, 30]: 60%
plant injury at 62 g/ha ([10]; Preemergence, scale 0 to 100, 0 no effect, 100 complete control, read-out: Plant response rating, Wheat): 0%
Plant response rating, Ragweed [11, 16]: 20
Ragweed plant response rating (0 to 100 scale) ([11]; 125 g ai/ha): 80
Plant response rating, Kochia [12, 16]: 90
Kochia plant response rating (0 to 100 scale) ([12]; 125 g ai/ha): 100
pest or weed control at 16 g/ha [13, 31]: 100%
pest or weed control at 125 g/ha [13, 32]: 100%
pest or weed control at 62 g/ha ([13]; Preemergence, scale 0 to 100, 0 no effect, 100 complete control, read-out: Plant response rating, Lambsquarters): 100%
pest or weed control at 16 g/ha [14, 33]: 100%
pest or weed control at 125 g/ha [14, 34]: 100%
pest or weed control at 62 g/ha ([14]; Preemergence, scale 0 to 100, 0 no effect, 100 complete control, read-out: Plant response rating, Pigweed): 100%
